Reference: US12404303B2, “Polypeptide and use thereof” (NANJING ANJI BIOLOGICAL TECHNOLOGY CO., LTD., priority 2019, dated 2025)
No end group written: not given here.

How the values were obtained:
chlamydia pneumoniae = test: Mouse pneumonia model, chlamydia pneumonia; type: in vivo, BALB/C mice; settings: average values±standard deviation
Text: (§1) A mouse pneumonia model was successfully established by using a nasal drip method. BALB/C mice with a body weight of 18-24 g were selected, and then anesthetized with ether on day 0, day 1 and day 2, respectively, prepared streptococcus pneumoniae bacteria solution, adenovirus concentrated solution, mycoplasma pneumoniae, chlamydia pneumoniae, protozoa and pneumonia fungi were slowly dropped into the nasal cavity of the mice, so that the bacteria solutions entered the trachea and bronchi, and the bacteria solutions were prevented from flowing into the esophagus during the operation to avoid inactivation of the bacteria solutions, so that the mouse pneumonia model was established. After the model was successfully established, the polypeptide according to the present disclosure was administered, as shown in FIG. 7 and Table 9. […] The experimental results are represented on the basis of average values±standard deviation.

pulmonary infections = test: Mouse pneumonia model, pneumonia caused by pulmonary infections; type: in vivo, BALB/C mice; settings: average values±standard deviation
Text: as §1

adenovirus = test: Mouse pneumonia model, viral pneumonia; type: in vivo, BALB/C mice; settings: average values±standard deviation
Text: as §1

streptococcus pneumoniae = test: Mouse pneumonia model, bacterial pneumonia; type: in vivo, BALB/C mice; settings: average values±standard deviation
Text: as §1

pneumonia fungi = test: Mouse pneumonia model, fungal pneumonia; type: in vivo, BALB/C mice; settings: average values±standard deviation
Text: as §1

mycoplasma pneumoniae = test: Mouse pneumonia model, mycoplasma pneumonia; type: in vivo, BALB/C mice; settings: average values±standard deviation
Text: as §1

protozoa = test: Mouse pneumonia model, protozoal pneumonia; type: in vivo, BALB/C mice; settings: average values±standard deviation
Text: as §1

skin fibrosis model mice = test: Skin fibrosis model induced by bleomycin, HYP in skin tissue; type: in vivo, C57/BL black mice; settings: skin tissue of the mouse back; 10 mg/kg subcutaneous twice a day, 28 days, vs model group; FIG. 6
Method: Bleomycin (10 μg/mL) was injected subcutaneously every day for 28 days to form skin fibrosis. During the modeling period, the administration groups were given polypeptide drugs every day for treatment, with 10 mice in each group. After modeling, the mice were killed on the next day, and the skin tissue of the mouse back was taken to detect the content of HYP in the skin tissue. [table]

myelofibrosis model mice = test: Myelofibrosis model induced by rh EPO; type: in vivo, Kunming mice; parameters: WBC / Hb / MCV / RDW: unit not given here; settings: 10 mg/kg subcutaneous twice a day, 28 days; for content of TGF-β1 in serum: mouse serum, vs model group, FIG. 5; for Hb / MCV / RDW / WBC: peripheral blood
Method: There were 10 mice in each group. The normal control group was injected with normal saline (0.3 mL for each mouse), and the remaining groups were injected with rh EPO (0.1 unit/gram, body weight, 0.3 mL for each mouse) intraperitoneally every day. After induction for two days, drug therapy was started, subcutaneous injection was given twice a day, and after continuous administration for 28 days, the mouse heart was punctured for blood extraction, some blood was used for peripheral blood analysis, some blood was centrifuged, and the supernatant was taken to measure the content of TGF-β1 in the serum of mice. [table]

[1] = test system: SD rats with renal fibrosis; test: Renal fibrosis animal model (ureter ligation), TGF-β1 in serum; type: in vivo; settings: 7.5 mg/kg subcutaneous twice a day, 14 days, vs model group; FIG. 4
Method: A renal fibrosis animal model was established. SD rats were anesthetized with 4% chloral hydrate, injected with 1 mL/100 g intraperitoneally, fixed to an operation board, and sterilized in an operation area for later use. […] Muscular layers and abdominal walls were sewed layer by layer, the suture was disinfected with alcohol. After SD rats woke up, the rats were put into a cage for feeding. In the blank group, ureter was not ligated, and other steps were the same. Then, the animals fell into a blank group, a model group, and polypeptide administration groups, and the administration was started on the second day after the operation, twice a day for 14 days. After administration for 14 days, blood was taken and supernatant was taken to detect the content of TGF-β1 in serum. [table]

LX-2 cells = test: Proliferation of LX-2 cells induced by TGF-β1 (MTT, in vitro hepatic fibrosis model); type: cell-based; settings: polypeptide 1 μmol/L, TGF-β1 10 ng/mL, 48 hours; for OD value: MTT, 570 nm
Method: LX-2 cells were cultured in 1640 medium containing 10% FBS, and cultured in an incubator with 5% CO2 at 37° C. The medium was replaced every two days, and subcultured according to the cell density. The LX-2 cells in a logarithmic growth phase were digested with 0.25% pancreatin to make cell suspension. The density of the cells was adjusted to 4×10^5 cells/mL, and the cells were inoculated into 96-well plates with 100 μL per well and cultured overnight. On the second day, TGF-β1 was added to induce the proliferation and activation of the LX-2 cells, and the polypeptide drugs were administrated at 1 μmol/L. TGF-β1 (10 ng/mL) was added to each group except the blank group. The cells were cultured in the incubator for 48 hours, and then 10 μL of MTT was added to each well. The MTT was removed after 4 hours, and 150 μL of DMSO was added for reaction for 5 min. An OD value was measured by a microplate reader at 570 nm.

[2] = test system: SD rats with bleomycin-induced pulmonary fibrosis; test: Bleomycin-induced pulmonary fibrosis animal model; type: in vivo; settings: bleomycin 5 mg/kg intratracheal, polypeptides 7.5 mg/kg subcutaneous twice a day, positive drug 25 mg/kg intragastric once a day, 14 days
Method: SD rats were anesthetized by intraperitoneal injection of 1 mL/100 g 4% chloral hydrate. After anesthesia, the rats were fixed and their necks were disinfected by using cotton with 75% alcohol. The skin of the rat neck was longitudinally cut with scissors, and the fascia and muscle were longitudinally bluntly torn with tweezers to expose the trachea. A syringe was inserted into the trachea to inject 5 mg/kg bleomycin, while a blank group was injected with an equal amount of normal saline. Then a rat plate was quickly erected and rotated, the rats' breathing was observed, the neck wound was sterilized after rotation and was sewn, and an amoxicillin anti-inflammatory drug was sprinkled on the suture. After the operation, the rats were put back into a dry and clean cage for resting, waiting was performed for awakening. The rats were awakened after about 1-2 hours, and then fed normally. On the 7th day after modeling, modeling group animals randomly fell into a model group, a Nintedanib positive drug group, polypeptide I, II, III and IV dosage groups, and a normal control group, and the groups were administered separately for an administration cycle of 14 days. Living situations of rats were observed every day and their weights were weighed.

[3] = test system: cardiac fibroblasts of rats; test: Proliferation of cardiac fibroblasts of rats (MTT, in vitro myocardial fibrosis model); type: cell-based; settings: 1 μmol/L; for Optical density values, 12 hours / Optical density values, 24 hours / Optical density values, 48 hours: MTT, 570 nm; for inhibition of the proliferation of cardiac fibroblasts of rats: at 24 hours and 48 hours
Method: The inhibitory effect of a polypeptide on cardiac fibroblasts of rats was detected by MTT assay. Cells were cultured in a DMEM medium containing 10% of FBS, the cytoplasm was made into 1×10^5/mL cell suspension, and 100 μL per well was inoculated into a 96-well plate. After the cells adhered to the wall, the medium was replaced with a serum-free DMEM medium, and the serum-free medium was discarded after 24 hours. The cells were cultured with different polypeptides of 1 μmol/L, and 5 multiple wells were set for each concentration. After 12, 24 and 48 hours separately, 10 μL of MTT was added to each well. After 4 hours, MTT was sucked out, and 150 μL of DMSO was added to each well. After reaction for 5 min, an OD value was measured at 570 nm by a microplate reader.

Row | Compound | Inhibitory effect on pulmonary infections, Chlamydia pneumonia (chlamydia pneumoniae) | Inhibitory effect on pulmonary infections, Pneumonia caused by pulmonary infections (pulmonary infections) | Inhibitory effect on pulmonary infections, Viral pneumonia (adenovirus) | Inhibitory effect on pulmonary infections, Bacterial pneumonia (streptococcus pneumoniae) | Inhibitory effect on pulmonary infections, Fungal pneumonia (pneumonia fungi) | Inhibitory effect on pulmonary infections, Mycoplasma pneumonia (mycoplasma pneumoniae) | Inhibitory effect on pulmonary infections, Protozoal pneumonia (protozoa) | expression of HYP in the skin tissue (skin fibrosis model mice) | Hb (myelofibrosis model mice) | MCV (myelofibrosis model mice) | RDW (myelofibrosis model mice) | WBC (myelofibrosis model mice) | content of TGF-β1 in serum [1] | inhibition of proliferation and activation of LX-2 cells, difference from model group (LX-2 cells) | OD value (LX-2 cells) | Survival rate (%) [2] | Optical density values, 12 hours [3] | Optical density values, 24 hours [3] | Optical density values, 48 hours [3] | inhibition of the proliferation of cardiac fibroblasts of rats [3] | also measured
1 | Penicillin [reference compound] | 30.75 ± 3.31 | 35.67 ± 4.55 | 38.07 ± 2.27 | 35.05 ± 5.75 | 38.61 ± 3.82 | 41.77 ± 5.73 | 39.04 ± 3.71 |  |  |  |  |  |  |  |  |  |  |  |  |  | 
2 | RGADRAGGGGPRCWRGE [Polypeptide I] | 45.18 ± 7.46 | 52.47 ± 7.88 | 58.00 ± 6.84 | 43.83 ± 7.59 | 45.65 ± 9.68 | 41.48 ± 5.55 | 48.16 ± 5.46 | highly significantly different from the model group (***P<0.001) | 143 ± 23 | 52 ± 4 | 31 ± 2 | 5.97 ± 1.76 | highly significantly different from the model group (**P<0.01) | significantly different from the model group (*P<0.05) | 0.66 ± 0.02 | 78.6% | 0.326 ± 0.006 | 0.392 ± 0.008 | 0.580 ± 0.012 | could inhibit the proliferation | content of TGF-β1 in serum (myelofibrosis model mice): highly significantly different from the model group (**P<0.01)
3 | RGADRAGGGGPRCWCGE (cysteine pairing not given here) [Polypeptide II] | 57.81 ± 5.21 | 66.15 ± 5.87 | 70.33 ± 9.27 | 49.25 ± 9.48 | 65.32 ± 3.07 | 54.69 ± 5.72 | 63.60 ± 6.16 | highly significantly different from the model group (***P<0.001) | 151 ± 19 | 51 ± 9 | 26 ± 3 | 5.61 ± 1.43 | highly significantly different from the model group (***P<0.001) | highly significantly different from the model group (**P<0.01) | 0.59 ± 0.02 | 85.7% | 0.325 ± 0.004 | 0.377 ± 0.015 | 0.518 ± 0.015 | could inhibit the proliferation | 
4 | COC(=O)c1ccc2c(c1)NC(=O)/C2=C(\Nc1ccc(N(C)C(=O)CN2CCN(C)CC2)cc1)c1ccccc1 [Positive drug, Nintedanib, reference compound] |  |  |  |  |  |  |  |  |  |  |  |  |  |  |  | 85.7% |  |  |  |  | 
5 | RGADRAGGGGPRCYRGE [Polypeptide III] | 54.40 ± 5.41 | 56.18 ± 3.31 | 65.49 ± 9.94 | 42.29 ± 8.76 | 62.88 ± 5.49 | 43.93 ± 5.34 | 64.29 ± 8.07 | highly significantly different from the model group (*P<0.05) | 145 ± 17 | 53 ± 8 | 28 ± 1 | 5.79 ± 1.23 | highly significantly different from the model group (**P<0.01) | significantly different from the model group (*P<0.05) | 0.63 ± 0.03 | 78.6% | 0.329 ± 0.012 | 0.402 ± 0.012 | 0.612 ± 0.018 | could inhibit the proliferation | content of TGF-β1 in serum (myelofibrosis model mice): highly significantly different from the model group (**P<0.01)
